# Assay results: patent US20220259593A1, “CONTROL OF MAMMALIAN GENE DOSAGE USING CRISPR” (The Regents of the University of California, priority 2019, published 2022)
# Tested on: K562 CRISPRi cells
# Test: Perturb-seq pooled growth measurement (sgRNA counts, growth phenotype γ, relative activity)
# Type: cell-based, human
# Conditions: sequencing read counts; for Perturb-seq pooled growth sgRNA counts, d5: 5 days of growth (day seven after transduction); for Perturb-seq pooled growth sgRNA counts, d10: 10 days of growth (day twelve after transduction); for Perturb-seq pooled growth sgRNA counts, T0: T0 = day two after transduction
# In short: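 CRISPRi K562 cells from the Perturb-seq transduced pool; 500,000-cell samples taken days two, seven and twelve post-transduction. sgRNA amplicons from genomic DNA sequenced; growth phenotypes from normalized sgRNA abundances at days seven and twelve versus day two. Relative activity assigned from day seven (five days' growth).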
Substance,"Perturb-seq pooled growth sgRNA counts, d5","Perturb-seq pooled growth sgRNA counts, d10","Perturb-seq pooled growth sgRNA counts, T0"
"HSPA9_−_137911079.23-P1P2_00: sgRNA targeting HSPA9, GGAGCTGCGCGATGCGGTGG, SEQ ID NO: 131 (listed as DNA, chemistry not fully specified)",944,835,5450
"COX11_+_53045977.23-P1P2_10: sgRNA targeting COX11, GGCTCTGGCGTCCCGGATGG, SEQ ID NO: 145 (listed as DNA, chemistry not fully specified)",8887,11271,5206
"POLR2H_+_184081251.23-P1P2_07: sgRNA targeting POLR2H, GGGGCCACGAGTGCAGCAGA, SEQ ID NO: 118 (listed as DNA, chemistry not fully specified)",6381,8153,4472
"HSPE1_+_198365089.23-P1P2_00: sgRNA targeting HSPE1, GGAGACTCGCAGTCCGGCCC, SEQ ID NO: 9 (listed as DNA, chemistry not fully specified)",2348,1179,6813
"CAD_+_27440280.23-P1P2_13: sgRNA targeting CAD, GGCTGGAGAGAAGCCTGGCG, SEQ ID NO: 105 (listed as DNA, chemistry not fully specified)",17097,19130,11874
"GATA1_−_48645022.23-P1P2_00: sgRNA targeting GATA1, GTGAGCTTGCCACATCCCCA, SEQ ID NO: 119 (listed as DNA, chemistry not fully specified)",955,757,5712
"non-targeting_00527: non-targeting negative control sgRNA, GTGGGAGCAGATCAAGACTC, SEQ ID NO: 168 (listed as DNA, chemistry not fully specified) [reference compound]",16865,27634,6840
"TUBB_+_30688126.23-P1_06: sgRNA targeting TUBB, GCGGCAGGACGGTTCTGAGA, SEQ ID NO: 107 (listed as DNA, chemistry not fully specified)",1983,1158,6235
"CAD_+_27440280.23-P1P2_07: sgRNA targeting CAD, GGCTGGAGCGAAGCCGGGCG, SEQ ID NO: 103 (listed as DNA, chemistry not fully specified)",6008,4019,13241
"GATA1_−_48645022.23-P1P2_08: sgRNA targeting GATA1, GTGAGCTTTCCACATCCCCA, SEQ ID NO: 122 (listed as DNA, chemistry not fully specified)",2043,1873,7028
"GNB2L1_+_180670873.23-P1P2_00: sgRNA targeting GNB2L1, GTGCAAGGCGGCGGCAGGAG, SEQ ID NO: 55 (listed as DNA, chemistry not fully specified)",2456,1685,2280
"RPS18_+_33239917.23-P1P2_01: sgRNA targeting RPS18, GCTGCAATGCCGCTGGATCA, SEQ ID NO: 41 (listed as DNA, chemistry not fully specified)",2658,2571,5202
"COX11_+_53045977.23-P1P2_04: sgRNA targeting COX11, GGCTCTGGCGCCCTGGATGG, SEQ ID NO: 143 (listed as DNA, chemistry not fully specified)",8343,5047,5234
"RPS15_−_1438413.23-P1P2_01: sgRNA targeting RPS15, GACCAAACCGATCTCTTCTG, SEQ ID NO: 64 (listed as DNA, chemistry not fully specified)",23866,39345,9713
"RPS14_+_149829238.23-P1P2_04: sgRNA targeting RPS14, GAGGCCCGCGCGCGACAATC, SEQ ID NO: 48 (listed as DNA, chemistry not fully specified)",9641,12547,9244
"GATA1_−_48645022.23-P1P2_06: sgRNA targeting GATA1, GTGAGCTTGCGACATCCCCA, SEQ ID NO: 123 (listed as DNA, chemistry not fully specified)",5580,5489,9440
"GATA1_−_48645022.23-P1P2_03: sgRNA targeting GATA1, GTGCGCTTGCCACATCCCCA, SEQ ID NO: 120 (listed as DNA, chemistry not fully specified)",1927,1534,12276
"SEC61A1_−_127771295.23-P1_01: sgRNA targeting SEC61A1, GGCACTGTCGTGTCTCTCGG, SEQ ID NO: 85 (listed as DNA, chemistry not fully specified)",4006,4229,5308
"GINS1_−_25388381.23-P1P2_00: sgRNA targeting GINS1, GGACTAGAACGAAAGGAGTG, SEQ ID NO: 93 (listed as DNA, chemistry not fully specified)",547,280,3621
"GINS1_−_25388381.23-P1P2_06: sgRNA targeting GINS1, GGACTAGAACGGAAGGAGTG, SEQ ID NO: 95 (listed as DNA, chemistry not fully specified)",1828,1219,11452
"BCR_+_23523092.23-P1P2_15: sgRNA targeting BCR, GCGCGCGGGGCCCGTCGCAG, SEQ ID NO: 129 (listed as DNA, chemistry not fully specified)",6829,8085,5377
"non-targeting_00001: non-targeting negative control sgRNA, GTGCACCCGGCTAGGACCGG, SEQ ID NO: 161 (listed as DNA, chemistry not fully specified) [reference compound]",18946,31944,10415
"POLR2H_+_184081251.23-P1P2_11: sgRNA targeting POLR2H, GGGGCCACGAGAGCAGCGGA, SEQ ID NO: 115 (listed as DNA, chemistry not fully specified)",898,1144,5900
"RPS14_+_149829238.23-P1P2_00: sgRNA targeting RPS14, GAGGCCCGGGCGCGACAATC, SEQ ID NO: 45 (listed as DNA, chemistry not fully specified)",3190,2984,11846
"non-targeting_00406: non-targeting negative control sgRNA, GGCGCCGGACTGGACCTCGA, SEQ ID NO: 167 (listed as DNA, chemistry not fully specified) [reference compound]",24099,39839,9974
"GINS1_−_25388381.23-P1P2_03: sgRNA targeting GINS1, GGACTATAACGAAAGGAGTG, SEQ ID NO: 96 (listed as DNA, chemistry not fully specified)",2982,2755,9799
"RPS18_+_33239917.23-P1P2_02: sgRNA targeting RPS18, GCTGGGATGCCGCTGGATCA, SEQ ID NO: 42 (listed as DNA, chemistry not fully specified)",3404,3757,5486
"RPS14_+_149829238.23-P1P2_13: sgRNA targeting RPS14, GAGGCCCGGGCGCGACAGTC, SEQ ID NO: 49 (listed as DNA, chemistry not fully specified)",9567,12082,7137
"HSPA9_−_137911079.23-P1P2_04: sgRNA targeting HSPA9, GGAGCTGCGCAATGCGGTGG, SEQ ID NO: 135 (listed as DNA, chemistry not fully specified)",9346,10829,6754
